Measured values published in patent EP1463487B1, “LIPOSOMAL DELIVERY OF VITAMIN E BASED COMPOUNDS” (RESEARCH DEVELOPMENT FOUNDATION, priority 2001, dated 2003).
“Also recorded” adds a separate entry of the source.

Columns and labels:
[1] = test system: 66 cl.4-GFP cells; assay: Visible lung metastases of 66 cl.4-GFP tumors in Balb/c mice; type: in vivo; details: daily aerosol for 17 days; counted visually at sacrifice
Description: (§1) Metastastic lesions in the five lung lobes were counted visually at time of sacrifice. Fluorescent green micro-metastatic cancer cell colonies in the left lung lobe and lymph nodes were counted using a Nikon fluorescence microscope (TE-200) with a 20 x objective (200 x magnification) and Image-Pro Plus (version 4.1; Media Cybernetics, Silver Spring, MD) software associated with the microscope. Fluorescent lesions were separated into three size grouping: <5 µm , 5-10 µm and >10 µm.

[2] = test system: MDA-MB-435 GFP FL cells; assay: Tumor growth of MDA-MB-435 GFP FL breast cancer cells in nude mice; type: in vivo, Nu/Nu athymic nude mice; details: liposome gavage, 8 mg compound per day, 2 times per day; day 27
Description: Animals were given a total of 8 mg compound per day. […] Alpha-TEA liposome gavage reduced tumor growth by 68, 75, 78, 79 and 79% on days 27, 29, 31, 33, and 35, respectively (Fig. 15).
Animals were gavaged 3ppm methylselenocysteine (MSC) in water, α-TEA in liposome via aerosol, or gavaged 10 mg/kg b.w. trans-resveratrol (t-RES) in first 1:1, EtOH: physiological saline, and starting at day 24, 6.5% EtOH and 93.5% Neobee oil. A combination group was treated with each of the above three compounds, and a control group was treated with aerosolized liposome, 100 µl water, and 50 µl of the t-Res solvent. Animals were treated seven days a week, for 35+ days.

[3] = test system: proliferation biomarker KI-67; assay: KI-67 immunohistochemistry of tumor sections (cell proliferation); type: in vivo, Balb/c mice; details: transplantable syngeneic mouse mammary cancer model, in comparison to controls
[4] = test system: A2780 cisplatin-sensitive cell line; assay: Apoptosis of A2780 ovarian cancer cells in culture; type: cell-based, human; details: treated in culture with α-TEA
[5] = test system: 66 cl.4-GFP cells; assay: Fluorescent lymph node micrometastases of 66 cl.4-GFP tumors in Balb/c mice; type: in vivo
Description: as §1
At sacrifice, the left lung lobe of each mouse of flash frozen and saves for detection of GFP expressing micrometatstic lesions via fluorescent microscopy.

[6] = test system: 66 cl.4-GFP cells; assay: Tumor growth of 66 cl.4-GFP mammary tumor cells implanted in Balb/c mice; details: for mean tumor volume reduced in comparison to aerosol control: liposomal α-TEA/aerosol daily
Description: 66 cl.4-GFP cells were harvested by trypsinization, centrifuged, resuspended in McCoy's media, containing no supplements at a density of 2 X 10^5/100µl. Mice were injected in the inguinal area at a point equal distance between the 4th and 5th nipples on the right side using a 23 gauge needle.
50 mice were assigned (10 per group) to aerosol treatment, aerosol control, oral treatment, oral control, or to the no treatment group so that the average tumor volume for all groups were closely matched. […] Tumors were measured using calipers every other day, and volumes were calculated using the formula: volume (mm^3) = [width (mm)^2 X length (mm)] /2. Body weights were determined weekly.
Balb/c mice were injected with 200,000 66 cl.4 GFP cells subcutaneous in the mammary fat pad area between the 4th and 5th nipple on the right side of the body.
Mice are injected with 200,000 66cl.4 GFP murine mammary tumor cells as described on day 0. Treatments are initiated on day 9 when tumors reached 1-3 mm in size. […] Data represent the mean +/- Standard Error (SE), N = 10 mice for control and treatment groups.
Balb/c mice were injected s. c. with 2 X 10^5 66 cl.4-GFP cells in the inguinal area between the 4th and 5th nipple on the right side of the body. When tumors reached 2 x 2-4 x 4 mm (9 days after tumor injection), mice were placed into 5 groups ((Group 1: untreated control, Group 2: liposome/aerosol control, Group 3: liposomal α-TEA aerosol treatment, Group 4: peanut oil/gavage control, Group 5: α-TEA in peanut oil/gavage treatment) of 10 mice/group) such that the mean tumor volume of each group was closely matched. Daily treatments were initiated on day 9 after tumor injection.
Balb/c mice were injected with 200,000 66 cl.4 GFP cells subcutaneous in the mammary fat pad area between the 4th and 5th nipple on the right side of the body. […] Animals were treated with α-TEA in liposome, vitamin E succinate in liposome, or control liposome alone via aerosol, 7 days per week, for 21 days. Animals were given 75 mg compound via nebulization per day such that each animal received 36 µg compound per day.
The size of the tumors, 9 - 21 days after injection of 200,000 66 cl.4 GFP cells between the 4th and 5th nipple on the right side of each mouse, is determined. Treatments are initiated on day 9 after tumor inoculation. Each group consists of n=10 +/- SE. Gavage Treatment = Treatments of 5 mg of α-TEA in ethanol and peanut oil (0.1 ml volume) are administered daily starting on day 9 after tumor inoculation and continuing through day 21. Gavage Control = Mice received peanut oil and ethanol alone (0.ml volume)/daily, starting on day 9 after tumor inoculation and continuing through day 21. Data (tumor size) are depicted as the mean +/- standard error for days 9, 11, 13, 15, 17, 19, and 21.
Balb/c mice were injected with 200,000 66 cl.4 GFP cells subcutaneous in the mammary fat pad area between the 4th and 5th nipple on the right side of the body. […] Animals were treated with α-TEA in liposome, vitamin E succinate in liposome, or control liposome alone via oral gavage, 2 times per day, 7 days per week, for 21 days. Animals were given a total of 6 mg compound per day.

[7] = test system: 66 cl.4-GFP tumors; assay: TUNEL assay for apoptosis in tumor sections in vivo; set-up: species or system Balb/c mice
Description: Deparaffinized sections (5 µm) of tumor tissue were used to assess apoptosis using reagents supplied in the ApopTag In Situ Apoptosis Detection kit (Intergen, Purchase, NY) according to the manufacturer's instructions. Nuclei that stained brown were scored as positive for apoptosis and those that stained blue were scored as negative. At least sixteen 400X microscopic fields were scored per tumor. Data are presented as the mean ± S. E number of apoptotic cells counted in three separate tumors from each group. Pictures of tumor tissue were taken at 1000X magnification.

[8] = Serum and tissue levels of α-TEA after liposomal aerosol treatment (HPLC); type: in vivo, balb/c mice; details: aerosol 5 mg/mouse over 30 minutes
Description: Tumors were removed during necropsy and half of each tumor was quick frozen in liquid nitrogen then stored at -70°C until HPLC analyses were performed. Tumors were processed for HPLC analyses by homogenization and hexane extraction of lipids. Briefly, weighed tumors were placed in 5 ml disposable conical-bottom tubes (Sarstedt, Newton, NC) along with 5-7 Kimble solid glass beads (4mm), 1 ml 1% SDS in water, 1-2 ml 100% ethanol and 1 ml hexane. Samples were then mixed using a Crescent Wig-L-Bug (model 3110B Densply International, Elgin, IL) twice for 1 min each. Samples were then centrifuged for 5 min at 1,000 rpm, and the organic layer collected, the aqueous layer was mixed with hexane again, vortexed, centrifuged, and processed twice more before the organic layer was dried down under nitrogen. Samples were run immediately. Reverse phase HPLC analyses with fluorometric detection of the tocopherol ether analog were conducted as described by Tirmenstein, M.A., et al. (23).
Eight mice are treated via pulmonary aerosol delivery with 40mg of α-TEA (5 mg/mouse) in 6 ml liposomes. The mice inhaled the aerosol over a period of 30 minutes until delivery was complete. Mice are sacrificed 0, 2, 6, or 24 hours after the treatment ended. Serum and tissue levels of α-TEA are determined by HPLC analyses (Fig. 7).

[9] = Aerosol, in nebulizer per mouse: α-TEA 5 mg/d, 9NC 2 µg/d, combination 5 mg+2µg/d

For `Cc1c(C)c2c(c(C)c1OCC(=O)O)CC[C@@](C)(CCC[C@H](C)CCC[C@H](C)CCCC(C)C)O2` [α-TEA, 2,5,7,8-tetramethyl-(2R-(4R,8R,12-trimethyltridecyl)chroman-6-yloxy) acetic acid], the “No. Visible Lung Tumor Foci/Animal” value [1] was “No visible tumors were seen”, the reduced tumor growth [2] was 68% and the “mean values of the proliferation biomarker KI-67 reduced” value [3] was 56%. For the same compound, the apoptosis [4] was “undergo apoptosis”, the “Inhibition (%) Metastases Lymphnode” value [5, 9] was 94% and the “Inhibition (%) Metastases Lymphnode” value ([5]; Liposomal, Aerosol, 5 mg/d) was 94%. For the same compound, the “Inhibition (%) Metastases Lymphnode” value ([5]; Liposomal, Gavage, 3 mg/2Xd) was 56%, the “average micrometastatic lesions in lymph nodes” value ([5]; liposome via gavage, 6 mg compound per day, 21 days) was 3.1 ±0.8 and the “tumor size at the inoculation site versus gavage control” value ([6]; 5 mg/day/mouse α-TEA in ethanol and peanut oil by gavage) was “no significant differences in tumor weights; also recorded: did not differ”. The “Inhibition (%) Tumor Growth” value [6, 9] was 65%, the “Inhibition (%) Tumor Growth” value ([6]; EtOH/P Oil, Gavage, 5 mg/d) was 0% and the “Inhibition (%) Tumor Growth” value ([6]; Liposomal, Aerosol, 5 mg/d) was 70%. The “Inhibition (%) Tumor Growth” value ([6]; Liposomal, Gavage, 3 mg/2Xd) was 70%, the “size of tumors less than aerosol only control group” value ([6]; aerosol α-TEA liposomes 5 mg/mouse daily, sacrifice day 25, 16 days after treatment initiation) was 61% and the “mean tumor volume reduced in comparison to aerosol control” value (shortened to “mean tumor volume reduced in comparison”) ([6]; day 9 of treatment) was 23%. For the same compound, the “mean tumor volume reduced in comparison” value ([6]; day 11 of treatment) was 41%, the “mean tumor volume reduced in comparison” value ([6]; day 13 of treatment) was 50% and the “mean tumor volume reduced in comparison” value ([6]; day 15 of treatment) was 67%. The “mean tumor volume reduced in comparison” value ([6]; day 17 of treatment) was 61%, the reduced tumor growth ([6]; liposome aerosol, 36 µg compound per day, 21 days, day 15) was 64% and the reduced tumor growth ([6]; liposome aerosol, 36 µg compound per day, 21 days, day 17) was 76%. For the same compound, the reduced tumor growth ([6]; liposome aerosol, 36 µg compound per day, 21 days, day 19) was 69%, the reduced tumor growth ([6]; liposome aerosol, 36 µg compound per day, 21 days, day 21) was 67% and the reduced tumor growth ([6]; liposome gavage, 6 mg compound per day, 2 times per day, day 15) was 85%. For the same compound, the reduced tumor growth ([6]; liposome gavage, 6 mg compound per day, 2 times per day, day 17) was 85%, the reduced tumor growth ([6]; liposome gavage, 6 mg compound per day, 2 times per day, day 19) was 80% and the reduced tumor growth ([6]; liposome gavage, 6 mg compound per day, 2 times per day, day 21) was 70%. For the same compound, the “apoptotic cells/field (mean ± S. E.)” value ([7]; liposomal α-TEA/aerosol treatment, three tumors) was 2.04±0.23 apoptotic cells/field, the “mean apoptotic values (TUNEL) increased” value ([7]; transplantable syngeneic mouse mammary cancer model, in comparison to controls) was 30% and the “serum and tissue levels of α-TEA” value ([8]; 0 hours after treatment ended) was “found only in the stomach tissue”. The “serum and tissue levels of α-TEA” value ([8]; 2 hours after treatment ended) was “present in the serum and stomach”, the “serum and tissue levels of α-TEA” value ([8]; 6 hours after treatment ended) was “present in the liver and stomach” and the “serum and tissue levels of α-TEA” value ([8]; 24 hours after treatment ended) was “present in the liver and stomach”.
